From patent publication US20230002327A1, “SMALL-MOLECULE REGULATOR OF TLR8” (TSINGHUA UNIVERSITY, priority 2019, published 2023)

How the values were obtained:
TLR7 = target: T1, TLR7 (Homo sapiens, UniProt Q9NYK1); assay: Inhibition of R848-induced signaling in HEK-Blue hTLR7 cell line (Quanti-Blue); format: cell-based
T1 construct: host or cells: HEK-Blue hTLR7 (HEK293-derived SEAP reporter cells)
T1 sequence (Q9NYK1 27-1049): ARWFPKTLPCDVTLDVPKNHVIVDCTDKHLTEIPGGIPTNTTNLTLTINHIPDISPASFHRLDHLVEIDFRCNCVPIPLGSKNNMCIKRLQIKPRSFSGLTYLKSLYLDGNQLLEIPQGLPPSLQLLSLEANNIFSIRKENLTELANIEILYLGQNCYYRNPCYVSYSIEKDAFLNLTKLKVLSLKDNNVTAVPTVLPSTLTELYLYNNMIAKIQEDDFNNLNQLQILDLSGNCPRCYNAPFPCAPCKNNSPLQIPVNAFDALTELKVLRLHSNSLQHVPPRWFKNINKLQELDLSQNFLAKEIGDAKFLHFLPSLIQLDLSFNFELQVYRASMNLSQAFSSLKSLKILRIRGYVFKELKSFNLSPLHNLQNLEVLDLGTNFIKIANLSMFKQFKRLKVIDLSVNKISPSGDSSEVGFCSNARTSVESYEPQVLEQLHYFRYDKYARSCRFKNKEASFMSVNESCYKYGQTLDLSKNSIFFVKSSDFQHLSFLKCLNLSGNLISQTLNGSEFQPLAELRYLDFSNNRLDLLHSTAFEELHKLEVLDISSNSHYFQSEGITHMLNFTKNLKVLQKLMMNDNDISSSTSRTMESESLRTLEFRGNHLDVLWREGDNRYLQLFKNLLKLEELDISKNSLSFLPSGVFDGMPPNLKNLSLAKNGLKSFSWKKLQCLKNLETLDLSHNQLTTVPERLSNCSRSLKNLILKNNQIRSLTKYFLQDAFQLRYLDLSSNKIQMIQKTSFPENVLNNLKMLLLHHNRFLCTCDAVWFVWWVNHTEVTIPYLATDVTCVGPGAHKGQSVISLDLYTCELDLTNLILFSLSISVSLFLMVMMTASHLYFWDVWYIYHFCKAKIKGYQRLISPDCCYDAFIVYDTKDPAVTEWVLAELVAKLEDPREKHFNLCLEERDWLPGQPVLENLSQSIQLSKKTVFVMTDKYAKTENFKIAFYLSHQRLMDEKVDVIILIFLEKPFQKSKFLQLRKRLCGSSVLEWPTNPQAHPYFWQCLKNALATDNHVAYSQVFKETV
Outline: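 HEK-Blue hTLR8 or hTLR7 cells in serum-free DMEM were co-treated for 24 h at 37 °C with compound plus 1 μg/mL R848, or 5 μg/mL ssRNA40/LyoVec or ORN06/LyoVec. SEAP in the supernatant was read with Quanti-Blue at OD620. % inhibition was taken relative to ligand-only and untreated cells, and IC50 was fitted.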

[1] = test system: R848-induced signaling pathway in THP-1 cells; assay: ELISA of inflammatory factors in R848-treated THP-1 cells; format: cell-based, human
Experimental: THP-1 cells treated with 50 ng/mL of PMA were suspended in RPMI medium (containing 10% fetal bovine serum, penicillin (100 U/mL), streptomycin ([…]) and 0.05 mM 2-mercaptoethanol), seeded in a 12-well plate at a density of 1×10^6 cells/well and 1 mL/well, and incubated in a cell incubator (37° C., 5% CO2).
(§1) After 48 hours, suspending cells would adhere onto the surface of the 12-well plate, non-adhered cells and the medium were aspirated, and cells were washed with sterile […] buffer (3×1 mL). RPMI medium was added (1 mL/well), and R848 (1 μg/mL) and various concentrations of Compound 24 or Compound 10 (as a negative control) were further added to treat cells. Or, the same amount of peripheral blood mononuclear cells derived from healthy human were used instead of THP-1 cells for subsequent experiments.
(§2) After 24 hours, the supernatant of the medium was collected and stored in a freezer at −80° C. Cells were washed with PBS (3×1 mL), the 12-well plate was placed on ice, and then 400 μL of lysis buffer (containing protease inhibitor) was added to each well, during which the cells were pipetted every five minutes. After 20 minutes, the mixture was transferred to the corresponding 1.5-mL tube and centrifuged at 13.2K rpm and 4° C. for 20 minutes. 350 μL of the supernatant was collected into a new centrifuge tube and frozen at −80° C.
(§3) Cytokines interleukin-1β(IL-1β), interleukin-6 (IL-6) and tumor necrosis factor (TNF-α) were quantified by enzyme-linked immunosorbent assay (ELISA) according to the instructions of the kit provided by the manufacturer.

[2] = test system: R848-induced signaling pathway in human peripheral blood mononuclear cells; assay: ELISA of TNF-α in R848-treated human peripheral blood mononuclear cells; format: cell-based; conditions: human peripheral blood mononuclear cells (FIG. 8)
Experimental: as §1, §2, §3

[3] = test system: peripheral blood mononuclear cells of patients suffering from rheumatoid arthritis; assay: TNF-α in PBMC of rheumatoid arthritis patients; format: cell-based, human; conditions: PBMC derived from rheumatoid arthritis patients (FIG. 9)
Experimental: Approximately 8 mL of blood was collected from untreated rheumatoid arthritis patients.
Peripheral blood mononuclear cells (PBMCs) were isolated from the whole blood derived from 6 rheumatoid arthritis patients using the lymphocyte separation medium, and the cells were seeded in a 96-well round-bottom plate at a density of 1×10^6 cells/mL immediately after the isolation (cultured in RPMI 1640 (0.25 mL/well)).
Afterwards, cells were treated with 0, 10, 20, 40 and 80 μM Compound 24, Compound 10 was used as a negative control, and cells were placed in a cell incubator (37° C., 5% CO2) for incubation.
After 24 hours, the resultant was centrifuged at 4,000 rpm/minute for 10 minutes, and then the supernatant was collected, frozen to −80° C. and used for the determination of TNF-α. Quantification was conducted using a human TNF ELISA Kit.

CCOCc1nc(I)c(-c2ccccc2)n1CC(C)(C)O [Compound 53, 1-[2-(ethoxymethyl)-4-iodo-5-phenyl-1H-imidazole-1-yl]-2-methylpropan-2-ol]
TLR7 (normalized inhibitory effect on R848-induced signaling) (TLR7): 1.0 ± 0.2

CSc1nnc(CCCO)n1-c1cc(C)c(C)c(C)c1 [Compound 24, 3-(5-(methylthio)-4-(3,4,5-trimethylphenyl)-4H-1,2,4-triazole-3-yl)propan-1-ol]
inhibitory effect on inflammatory factor TNF-α ([1]; concentration-dependent (FIG. 5)): significant inhibitory effect | inhibitory effect on inflammatory factor IL-6 ([1]; concentration-dependent (FIG. 6)): significant inhibitory effect | inhibitory effect on inflammatory factor IL-1β ([1]; concentration-dependent (FIG. 7)): significant inhibitory effect | inhibitory effect on inflammatory factor TNF-α [2]: significant inhibitory effect | inhibitory effect on inflammatory factor TNF-α [3]: significant inhibitory effect
